This assay deals with HIF-1α. The experiment in a line: HIF-1α transactivation assay in NIH-3T3-EPO-Luc fibroblast cells. The format is cell-based. Particulars: 6 h stimulation. How it is done:
To investigate the biological activities of the different compounds, HIF-1α transactivation assays were performed either in NIH-3T3-EPO-Luc cells (Table II) or in HaCaT-EPO-luc cells (FIG. 2). The NIH3T3-EPO-luc and HaCaT-EPO-luc cells have been stably transfected with the plasmid Epo-Luc plasmid. The EPO-Hypoxia Response Element (HRE)-luciferase reporter plasmid contains three copies of the HRE consensus sequence from the promoter of the erythropoietin gene fused to the luciferase gene. NIH3T3-EPO-luc cells were maintained at 37° C. in a humidified atmosphere containing 5% CO2 in DMEM supplemented with 10% fetal calf serum (FBS), and 1% (v/v) penicillin/streptomycin. DFX was purchased from Sigma-Aldrich (USA). Cells (1×10^4/well in 96 well plates) were seeded the day before the assay. […] After six hours of stimulation the cells were lysed in 25 mM Tris-phosphate pH 7.8, 8 mM MgCl2, 1 mM DTT, 1% Triton X-100, and 7% glycerol during 15 min at RT in a horizontal shaker. Luciferase activity is measured using a microplate luminometer (Berthold) following the instructions of the luciferase assay kit (Promega, Madison, Wis., USA).

One may read the EC50 as the concentration that produces a half-maximal response. Consider `C=C(C)[C@@H]1CC[C@]2(C(=O)NO)CC[C@]3(C)[C@H](CC[C@@H]4[C@@]5(C)CC[C@H](O)C(C)(C)[C@@H]5CC[C@]43C)[C@@H]12` [Compound VII, (3β) 3-Hydroxy-N-hydroxy-lup-20(29)-en-28-amide], for which, under “relative to 150 μM DFX”, the “Efficacy HIF-1α (IRA coefficient)” value is reported as 0.36. Moreover, the EC50 (Fibroblast, read-out: Potency EC50 HIF-1α) is 4.81 µM.

The values above are taken from patent US10766855B2, “Hydroxamate triterpenoid derivatives” (VIVACELL BIOTECHNOLOGY ESPANA S.L., priority 2016, dated 2020).
